In article PMC10816046, “The Interaction and Effect of a Small MitoBlock Library as Inhibitor of ALR Protein–Protein Interaction Pathway” (International Journal of Molecular Sciences, 2024):

Legend:
ALR (SF-ALR) [1] = target: T1, ALR (SF-ALR) (Homo sapiens, UniProt P55789); test: 1H-15N HSQC NMR titration (slow exchange); type: binding
T1 construct: gene GFER; SF-ALR, residues 81–205

ALR (SF-ALR) [2] = target: T1, ALR (SF-ALR); test: 1H-15N HSQC NMR titration of […] SF-ALR (slow exchange); IC50 from Amplex Red-HRP assay with pure enzyme; type: biochemical

T1 sequence (P55789 81-205): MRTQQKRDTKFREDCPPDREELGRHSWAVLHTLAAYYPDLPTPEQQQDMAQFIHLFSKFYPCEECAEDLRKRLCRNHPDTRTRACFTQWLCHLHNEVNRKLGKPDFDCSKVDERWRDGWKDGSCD

| IC50 (ALR (SF-ALR) [2]) [µM] | SMILES | 1H-15N HSQC NMR titration (slow exchange) (ALR (SF-ALR) [1]) |
| --- | --- | --- |
| – | CN(c1ccc(C2=NN=C(NC3CC3)SC2)cc1)S(C)(=O)=O [MB-7] | perturbation on the HN signals in the 2D NMR spectra (ES-1, MB-5, MB-7, MB-8, and MB-13) |
| 9.02 | CC(=O)Nc1cccc(-c2csc(Nc3ccc(C)cn3)n2)c1 [MB-8] | – |
| 10.7 | Nc1ccc(N2CCN(C(=O)c3ccco3)CC2)cc1 [MB-13] | – |
